Measurements from the supplement of paper PMC10307832.

Columns and labels:
Assay in all cases: relative viability (nuclei count vs DMSO), 5 days (fraction); higher = more cells survive
Erlotinib + Lapatinib = compound: C#Cc1cccc(Nc2ncnc3cc(OCCOC)c(OCCOC)cc23)c1 [Erlotinib] + CS(=O)(=O)CCNCc1ccc(-c2ccc3ncnc(Nc4ccc(OCc5cccc(F)c5)c(Cl)c4)c3c2)o1 [Lapatinib] (partner 2 µM)
How it was run: (§1)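 Relative viability was taken as the ratio of nuclei in treated wells to nuclei in vehicle wells. Lung cancer cell lines in 1536-well plates received compounds by pin tool one day after seeding, either one drug alone or a fixed anchor-drug dose plus five library-drug doses (not always all listed) in √10 steps. Nuclei were counted on 4× images after 5 days of treatment, and values are medians of duplicate plates.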

AT9283 + Trametinib = compound: O=C(Nc1c[nH]nc1-c1nc2ccc(CN3CCOCC3)cc2[nH]1)NC1CC1 [AT9283] + CC(=O)Nc1cccc(-n2c(=O)n(C3CC3)c(=O)c3c(Nc4ccc(I)cc4F)n(C)c(=O)c(C)c32)c1 [Trametinib] (partner 0.02 µM)
How it was run: as §1

AT9283 + Tozasertib = compound: O=C(Nc1c[nH]nc1-c1nc2ccc(CN3CCOCC3)cc2[nH]1)NC1CC1 [AT9283] + Cc1cc(Nc2cc(N3CCN(C)CC3)nc(Sc3ccc(NC(=O)C4CC4)cc3)n2)n[nH]1 [Tozasertib] (partner 0.1 µM)
How it was run: as §1

AT9283 + Pemetrexed = compound: O=C(Nc1c[nH]nc1-c1nc2ccc(CN3CCOCC3)cc2[nH]1)NC1CC1 [AT9283] + Nc1nc2[nH]cc(CCc3ccc(C(=O)N[C@@H](CCC(=O)O)C(=O)O)cc3)c2c(=O)[nH]1 [Pemetrexed] (partner 0.2 µM)
How it was run: as §1

AT9283 + Foretinib = compound: O=C(Nc1c[nH]nc1-c1nc2ccc(CN3CCOCC3)cc2[nH]1)NC1CC1 [AT9283] + COc1cc2c(Oc3ccc(NC(=O)C4(C(=O)Nc5ccc(F)cc5)CC4)cc3F)ccnc2cc1OCCCN1CCOCC1 [Foretinib] (partner 0.25 µM)
How it was run: as §1

| Cell Line | relative viability (Erlotinib + Lapatinib; first compound 0.02 µM) | relative viability (Erlotinib + Lapatinib; first compound 0.2 µM) | relative viability (Erlotinib + Lapatinib; first compound 0.6325 µM) | relative viability (Erlotinib + Lapatinib; first compound 2 µM) | relative viability (AT9283 + Trametinib; first compound 0.003 µM) | relative viability (AT9283 + Trametinib; first compound 0.03 µM) | relative viability (AT9283 + Trametinib; first compound 0.09487 µM) | relative viability (AT9283 + Trametinib; first compound 0.3 µM) | relative viability (AT9283 + Tozasertib; first compound 0.003 µM) | relative viability (AT9283 + Tozasertib; first compound 0.03 µM) | relative viability (AT9283 + Tozasertib; first compound 0.09487 µM) | relative viability (AT9283 + Tozasertib; first compound 0.3 µM) | relative viability (AT9283 + Pemetrexed; first compound 0.003 µM) | relative viability (AT9283 + Pemetrexed; first compound 0.03 µM) | relative viability (AT9283 + Pemetrexed; first compound 0.09487 µM) | relative viability (AT9283 + Pemetrexed; first compound 0.3 µM) | relative viability (AT9283 + Foretinib; first compound 0.003 µM) | relative viability (AT9283 + Foretinib; first compound 0.03 µM) | relative viability (AT9283 + Foretinib; first compound 0.09487 µM) | relative viability (AT9283 + Foretinib; first compound 0.3 µM) |
| --- | --- | --- | --- | --- | --- | --- | --- | --- | --- | --- | --- | --- | --- | --- | --- | --- | --- | --- | --- | --- |
| LU99A | 1.1 | 0.999 | 1.05 | 0.768 | 0.539 | 0.327 | 0.178 | 0.217 | 0.268 | 0.247 | 0.226 | 0.222 | 0.162 | 0.184 | 0.139 | 0.112 | 0.751 | 0.34 | 0.233 | 0.237 |
| LXF-289 | 0.89 | 0.953 | 0.899 | 0.889 | 0.695 | 0.686 | 0.254 | 0.145 | 0.2 | 0.127 | 0.0989 | 0.0888 | 0.827 | 0.861 | 0.215 | 0.128 | 1 | 0.571 | 0.225 | 0.109 |
| NCI-H23 | 1.29 | 0.993 | 1.27 | 0.977 | 0.377 | 0.291 | 0.281 | 0.19 | 0.413 | 0.603 | 0.276 | 0.285 | 0.675 | 0.749 | 0.296 | 0.238 | 0.985 | 0.717 | 0.412 | 0.32 |
| NCI-H322M | 0.551 | 0.604 | 0.555 | 0.541 | 0.486 | 0.49 | 0.407 | 0.405 | 0.499 | 0.511 | 0.395 | 0.443 | 0.605 | 0.438 | 0.443 | 0.482 | 0.958 | 0.544 | 0.41 | 0.462 |
| NCI-H358 | 0.379 | 0.421 | 0.519 | 0.452 | 0.144 | 0.105 | 0.081 | 0.0743 | 0.108 | 0.0953 | 0.107 | 0.0809 | 0.164 | 0.124 | 0.111 | 0.112 | 0.653 | 0.155 | 0.0898 | 0.0981 |
| NCI-H460 | 0.918 | 1.1 | 0.999 | 0.959 | 0.143 | 0.215 | 0.0758 | 0.0307 | 0.388 | 0.198 | 0.0277 | 0.0528 | 0.0566 | 0.0638 | 0.0674 | 0.0587 | 0.983 | 0.907 | 0.184 | 0.0594 |
| NCI-H520 | 0.825 | 0.759 | 0.913 |  | 0.719 | 0.276 | 0.291 | 0.149 | 0.48 | 0.435 | 0.423 | 0.251 | 0.702 | 0.302 | 0.303 | 0.198 | 0.95 | 0.326 | 0.337 | 0.295 |
| NCI-H596 |  | 1 | 0.998 | 1.01 | 0.76 | 0.868 | 0.566 | 0.635 | 0.943 | 0.839 | 0.933 | 0.553 | 0.512 | 0.574 | 0.529 | 0.462 | 0.813 | 0.822 | 0.744 | 0.59 |
| NCI-H647 | 1.24 | 1.11 | 1.09 | 0.942 | 0.46 | 0.47 | 0.138 | 0.173 | 0.307 | 0.14 | 0.117 | 0.118 | 0.168 | 0.127 | 0.0669 | 0.0634 | 1.41 | 0.396 | 0.273 | 0.202 |
| NCI-H650 | 0.754 | 1.08 | 1.14 | 0.744 | 0.976 | 0.906 | 0.394 | 0.179 | 0.693 | 0.408 | 0.17 | 0.177 | 0.939 | 0.864 | 0.53 | 0.153 | 1.08 | 0.958 | 0.332 | 0.154 |
| NCI-H661 | 0.493 | 0.41 |  | 0.473 | 0.571 | 0.441 | 0.423 | 0.323 | 0.347 | 0.344 | 0.389 | 0.37 | 0.932 | 0.449 | 0.405 | 0.385 | 1.01 | 0.472 | 0.384 | 0.364 |
| NCI-H838 | 1.21 | 0.759 | 1.26 | 0.853 | 0.543 | 0.275 | 0.16 | 0.144 | 0.274 | 0.271 | 0.216 | 0.24 | 0.227 | 0.21 | 0.182 | 0.153 | 1.05 | 0.427 | 0.262 | 0.281 |
| NCI-H1355 | 1.03 | 0.98 | 1.06 | 0.998 | 0.446 | 0.427 | 0.354 | 0.179 | 0.518 | 0.464 | 0.224 | 0.218 | 0.989 | 1.02 | 0.719 | 0.301 | 0.871 | 0.952 | 0.582 | 0.272 |
| NCI-H1395 |  | 1.11 | 1.02 | 0.961 | 1.07 | 0.865 | 0.444 | 0.341 | 0.61 | 0.553 | 0.399 | 0.355 | 0.799 | 0.764 | 0.322 | 0.34 | 0.729 | 0.88 | 0.465 | 0.397 |
| NCI-H1437 | 0.788 | 0.812 | 1 | 0.726 | 0.547 | 0.568 | 0.302 | 0.14 | 0.426 | 0.321 | 0.215 | 0.238 | 0.306 | 0.298 | 0.264 | 0.225 | 1.33 | 0.974 | 0.533 | 0.323 |
